Where only a bound is given, the exact number is not on record here.

The test has as its target T1, androgen receptor (AR) (Homo sapiens, UniProt P10275, T878A).
T1 construct: LNCaP cells expressing ARR2PB-FireflyLuc and CMV-RenillaLuc; endogenous in cells; host or cells: LNCaP cells carrying ARR2PB-FireflyLuc and CMV-RenillaLuc reporters
T1 sequence (P10275 1-920 T878A): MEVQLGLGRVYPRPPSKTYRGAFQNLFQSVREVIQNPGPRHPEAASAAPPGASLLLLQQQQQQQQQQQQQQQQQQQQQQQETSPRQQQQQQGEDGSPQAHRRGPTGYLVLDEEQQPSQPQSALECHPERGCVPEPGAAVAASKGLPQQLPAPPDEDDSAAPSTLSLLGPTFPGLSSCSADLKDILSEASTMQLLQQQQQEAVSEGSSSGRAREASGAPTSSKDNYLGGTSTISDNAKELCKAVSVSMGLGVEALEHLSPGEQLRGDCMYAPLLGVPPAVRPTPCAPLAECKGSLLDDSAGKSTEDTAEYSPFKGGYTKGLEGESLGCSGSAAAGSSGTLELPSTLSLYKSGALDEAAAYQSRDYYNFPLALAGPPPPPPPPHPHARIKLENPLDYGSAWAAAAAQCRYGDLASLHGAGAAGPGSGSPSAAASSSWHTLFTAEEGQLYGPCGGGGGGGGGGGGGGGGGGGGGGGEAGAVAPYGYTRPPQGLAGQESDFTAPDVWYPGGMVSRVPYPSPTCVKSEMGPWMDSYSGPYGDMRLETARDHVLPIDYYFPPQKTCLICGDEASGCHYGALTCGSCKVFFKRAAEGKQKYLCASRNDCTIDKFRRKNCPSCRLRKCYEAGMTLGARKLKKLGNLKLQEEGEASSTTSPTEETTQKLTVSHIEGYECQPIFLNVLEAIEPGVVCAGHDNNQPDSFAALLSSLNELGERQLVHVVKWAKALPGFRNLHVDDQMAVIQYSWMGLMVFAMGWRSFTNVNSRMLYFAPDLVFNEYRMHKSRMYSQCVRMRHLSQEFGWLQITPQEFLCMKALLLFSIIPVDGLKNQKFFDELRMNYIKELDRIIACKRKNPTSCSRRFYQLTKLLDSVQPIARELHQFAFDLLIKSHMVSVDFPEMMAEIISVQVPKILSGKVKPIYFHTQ
The test can be described thus: AR reporter assay in LNCaP cells expressing ARR2PB-FireflyLuc and CMV-RenillaLuc, antagonist mode (% remaining activity, IC50). It counts as cell-based. Conditions: 48 h at 37° C., class symbols A-D, read-out: IC50. In a few lines:
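LNCaP cells carrying ARR2PB-firefly and CMV-Renilla luciferase reporters were treated 48 h at 37 °C with compound plus 0.5 nM DHT. Signals were normalised between 0.5 nM DHT alone and 10 uM enzalutamide + DHT to give % remaining activity, and IC50 was obtained by non-linear regression.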
In the case of `c1ccc2c(-c3ccc(N4CCNCC4)cn3)n[nH]c2c1` [Compound 64], the half-maximal inhibitory concentration (IC50) was above 10 µM.
The value for `O=S1(=O)CCNc2ccc(-c3n[nH]c4cc(F)c(F)cc34)nc21` [Compound 115] was above 10 µM; that for `COc1ccc2nc(-c3n[nH]c4ccccc34)ccc2n1` [Compound 16] was above 10 µM.
As for `N#Cc1cccc2c(-c3ccccn3)c[nH]c12` [Compound 176], the figure is 0.1 to 1 µM; as for `CC(=O)N1CCC(Oc2ncc(-c3n[nH]c4c(C#N)cccc34)nc2C)C1` (stereo not shown) [Compound 312], 1 to 10 µM; as for `Cc1cc(C#N)c2[nH]cc(-c3ccc(N)c(C)n3)c2c1` [Compound 152], 1 to 10 µM.
The value for `COc1nc(-c2c[nH]c3c(C#N)cccc23)ccc1C(N)=O` [Compound 316] was above 10 µM; that for `Cc1nc(-c2c[nH]c3c(C#N)cccc23)ccc1OCC(C)(C)O` [Compound 324] was 1 to 10 µM.
Regarding `Cc1nc(-c2c[nH]c3c(C)cccc23)ccc1N` [Compound 140], the IC50 was 1 to 10 µM.
Consider `N#Cc1cccc2c(-c3ccc(N)cn3)c[nH]c12` [Compound 132], for which the IC50 fell in the range of 1 to 10 µM.
